In ChEMBL document CHEMBL5365480, “Potent and selective carbonic anhydrase inhibition activities of pyrazolones bearing benzenesulfonamides” (Bioorg Med Chem Lett, 2023):

Experiments:
Carbonic anhydrase 2 = Carbonic anhydrase 2 (Homo sapiens, UniProt P00918); experiment: Inhibition of human CA II assessed as inhibition constant by stopped-flow CO2 hydrase assay method
Carbonic anhydrase 12 = Carbonic anhydrase 12 (Homo sapiens, UniProt O43570); experiment: Inhibition of human CA XII assessed as inhibition constant by stopped-flow CO2 hydrase assay method
Sequence of Carbonic anhydrase 12 (O43570 whole entry): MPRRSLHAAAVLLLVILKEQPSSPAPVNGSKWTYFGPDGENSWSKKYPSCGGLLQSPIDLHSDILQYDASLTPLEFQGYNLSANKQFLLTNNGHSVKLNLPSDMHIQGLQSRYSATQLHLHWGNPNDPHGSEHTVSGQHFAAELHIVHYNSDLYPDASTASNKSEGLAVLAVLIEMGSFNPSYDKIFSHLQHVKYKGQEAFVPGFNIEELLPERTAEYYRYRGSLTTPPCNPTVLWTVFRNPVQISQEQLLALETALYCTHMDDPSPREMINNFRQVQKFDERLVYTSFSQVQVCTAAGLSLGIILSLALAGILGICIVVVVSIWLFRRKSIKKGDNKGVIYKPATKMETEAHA

Carbonic anhydrase 9 = Carbonic anhydrase 9 (Homo sapiens, UniProt Q16790); experiment: Inhibition of human CA IX assessed as inhibition constant by stopped-flow CO2 hydrase assay method
Carbonic anhydrase 1 = Carbonic anhydrase 1 (Homo sapiens, UniProt P00915); experiment: Inhibition of human CA I assessed as inhibition constant by stopped-flow CO2 hydrase assay method
Sequence of Carbonic anhydrase 1 (P00915 whole entry): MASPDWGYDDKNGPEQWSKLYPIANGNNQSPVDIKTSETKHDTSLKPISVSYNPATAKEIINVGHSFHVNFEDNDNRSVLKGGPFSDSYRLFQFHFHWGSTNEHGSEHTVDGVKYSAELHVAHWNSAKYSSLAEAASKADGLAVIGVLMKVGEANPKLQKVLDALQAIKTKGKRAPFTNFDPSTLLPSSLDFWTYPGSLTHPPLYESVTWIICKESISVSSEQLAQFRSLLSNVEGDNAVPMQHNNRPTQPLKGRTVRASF

| SMILES | Ki (Carbonic anhydrase 2) | Ki (Carbonic anhydrase 12) | Ki (Carbonic anhydrase 9) | Ki (Carbonic anhydrase 1) |
| --- | --- | --- | --- | --- |
| CC1=NN(c2ccccc2)C(=O)/C1=N/Nc1ccc(S(N)(=O)=O)cc1 |  | 48.8 nM | 8.7 nM | 712 nM |
| CC1=NN(c2ccc(C)cc2)C(=O)/C1=N/Nc1ccc(S(N)(=O)=O)cc1 | 6.1 nM | 66.1 nM | 25.1 nM | 337 nM |
| CC1=NN(c2ccccc2Cl)C(=O)/C1=N/Nc1cccc(S(N)(=O)=O)c1 | 290 nM | 123 nM | 70.7 nM | 9080 nM |
| CC1=NN(c2ccccc2)C(=O)/C1=N/Nc1cccc(S(N)(=O)=O)c1 | 6.6 nM | 53.5 nM | 15 nM | 8310 nM |
| CC1=NN(c2ccc(C)cc2)C(=O)/C1=N/Nc1cccc(S(N)(=O)=O)c1 | 186 nM | 40.6 nM | 44.9 nM | 376 nM |
| CC1=NN(c2ccc(C#N)cc2)C(=O)/C1=N/Nc1ccc(S(N)(=O)=O)cc1 | 59 nM | 9.2 nM | 3.2 nM | 504 nM |

Now from value to molecule:

| Ki (Carbonic anhydrase 2) | Ki (Carbonic anhydrase 12) | Ki (Carbonic anhydrase 9) | Ki (Carbonic anhydrase 1) | SMILES |
| --- | --- | --- | --- | --- |
| 21.1 nM | 24.6 nM | 1.1 nM | 8640 nM | CC1=NN(c2ccc(Cl)cc2)C(=O)/C1=N/Nc1ccc(S(N)(=O)=O)cc1 |
| 327 nM | 90.6 nM | 40.2 nM | 7800 nM | CC1=NN(c2ccc(Cl)cc2)C(=O)/C1=N/Nc1cccc(S(N)(=O)=O)c1 |
| 139 nM | 87.2 nM | 22.9 nM | 217 nM | CC1=NNC(=O)/C1=N/Nc1cccc(S(N)(=O)=O)c1 |
| 0.5 nM | 3.9 nM | 60.7 nM | 495 nM | CC1=NN(c2ccc(C#N)cc2)C(=O)/C1=N/Nc1cccc(S(N)(=O)=O)c1 |
| 72 nM | 6.7 nM | 8.5 nM | 5270 nM | CC1=NN(c2ccc(Cl)cc2Cl)C(=O)/C1=N/Nc1ccc(S(N)(=O)=O)cc1 |
| 77.6 nM | 73.7 nM | 31.2 nM | 7420 nM | CC1=NN(c2ccccc2Cl)C(=O)/C1=N/Nc1ccc(S(N)(=O)=O)cc1 |
| 473 nM | 273 nM | 158 nM | 53200 nM | CC1=NN(c2ccc(Cl)cc2Cl)C(=O)/C1=N/Nc1cccc(S(N)(=O)=O)c1 |
| 2.5 nM | 161 nM | 36.2 nM | 53.1 nM | CC1=NNC(=O)/C1=N/Nc1ccc(S(N)(=O)=O)cc1 |
